According to US9598463B2, “Mucin hypersecretion inhibitors and methods of use” (BIOMARCK PHARMACEUTICALS, LTD., priority 2005, dated 2017):

System: ATP-induced mucin hypersecretion
Test: Aerosolized Ac-peptide 106 on ATP-induced mucin hypersecretion in mouse model with goblet cell metaplasia
Type: in vivo, BALB/c mice
Conditions: aerosol
Method: The efficacy of aerosolized Ac-peptide 106 on mucin hypersecretion in a mouse model of asthma was determined at two concentrations. Briefly, 5- to 8 week old BALB/c mice were immunized weekly as described above in Example 1A for 3 weeks with ovalbumin. On Day 28 the mice were challenged with aerosolized 2.5% ovalbumin in normal saline for 30 minutes. Three days after ovalbumin challenge, each group of mice (n=2) was administered an aerosolized isotonic solution of Ac-peptide 106 at […] or 30 mM for 1 hour with an AeroMist CA-209 nebulizer. The mass median aerodynamic diameter of the aerosol particles was 1.49 um (range 0.4 to 4.7 urn). Given these concentrations of Ac-peptide 106 and this particle size, the calculated pulmonary deposition of Ac-peptide 106 was 0.38 mg/kg body weight and 1.1 mg/kg body weight, respectively.
Ac-peptide 106 administration was immediately followed by aerosol administration of the secretagogue adenosine triphosphate (ATP) ([…] in saline) for 5 minutes. The mice were sacrificed, and the lungs were harvested within 20 minutes. The lungs were rinsed with saline, fixed with paraformaldehyde, embedded in paraffin, and sectioned. The sections were quantitatively analyzed for the presence of mucin by quantitative immunohistochemistry according to the method of Evans et al. (Am. J. Respir. Cell Mol. Biol. Vol. 31, pp 382-394, 2004).

## Ac-GAQFSKTAAK-OH [Ac-peptide 106]
Calculated pulmonary deposition 0.38 mg/kg body weight
  Inhibition of ATP-induced mucin hypersecretion: 30%
Calculated pulmonary deposition 1.1 mg/kg body weight
  Inhibition of ATP-induced mucin hypersecretion: 67%
